# Laboratory results taken from patent EP0404374A2, “Composition” (IMPERIAL CHEMICAL INDUSTRIES PLC, priority 1989, dated 1990).
# Where a name gives a salt, the structure may show the parent alone.
# Columns and labels:
# [1] = tested on: cellulase from Aspergillus niger; assay: cellulase activity: viscosity (flow time) of carboxymethyl cellulose solution; assay type: biochemical; details: additive 10mM dm⁻³ pre-incubated with enzyme one hour at 25°C, about 24 minutes in the absence of cellulase; for Flow Rate (b) With additive 10: flow time after 10 minutes incubation; for Flow Rate (b) With additive 60: flow time after 60 minutes incubation
# Protocol: To determine cellulase activity, 15cm³ of a 1% w/v solution of carboxymethyl cellulose in 50mM/dm³ of a tris (hydroxymethyl) aminomethane/hydrochloric acid buffer having a pH of 9, was incubated at 25°C with 0.01cm³ of a 10mg.cm⁻³ aqueous solution of cellulase from Aspergillus niger obtained from the Sigma Chemical Company.
# The viscosity of the cellulose solution was determined after being incubated with the cellulase for either 10 or 60 minutes
# To determine the effect of an additive on the spoilage activity of the enzyme, the compound was incubated with the enzyme at 25°C for a period of one hour, the concentration of the additive being 10mM dm⁻³ . The pre-incubated mixture was then added to a carboxymethyl cellulose solution of the type previously described. The resulting mixture was incubated and the viscosity was determined after 10 and 60 minutes incubation.
# [2] = tested on: purified components of the cellulase complex; details: Wood et al, Biochem.J. (1980), 189, 51 to 65; cited from earlier work
# [3] = tested on: lipase from Candida cylindracea; assay: lipase activity, turbidimetric method with triolein; assay type: biochemical; details: enzyme CC; 9 millimoles; incubated 30 minutes at 25°C, pH 9.2; relative to control
# Protocol: (§1) N,N¹-dichlorodimethyl hydantoin in an amount of 9 millimoles was dissolved in ethanol and added to a lipase in a tris (hydroxymethyl) aminomethane/hydrochloric acid buffer at a pH of 9.2. The mixture was incubated for 30 minutes at 25°C and neutralised by the addition of thiosulphate. The activity of the enzyme was determined as described hereafter.
# (§2) Lipase activity was determined by the turbidimetric method described on pages 26 to 34 of "Methods of Enzymatic Analysis" Third Edition, edited by H V Bergmeyer and published by Verlag Chemie. The decrease in the light scattering of triolein (1,2,3-tris[cis-9-octadecenoyl]glycerol) by lipase was measured at 25°C and 350 nanometres on a Perkin-Elmer Lambda 15 spectrophotometer. Light scattering was measured on 2.8cm³ of an aqueous solution containing 24 micromoles of "Tris" buffer at pH 9.2, one micromole of calcium chloride, 35 micromoles of sodium chloride, 17.5 micromoles of sodium deoxycholate and 0.28 micromole of triolein. The activity was determined by the addition of 5mm³ of an aqueous solution containing 4.5mg cm⁻³ of lipase. Table Two
# [4] = tested on: lipase from Pseudomonas species; assay: as above; assay type: biochemical; details: enzyme PS; 9 millimoles; incubated 30 minutes at 25°C, pH 9.2; relative to control
# Protocol: as §1, §2
# [5] = tested on: protease from S. griseus; assay: protease catalysed hydrolysis of chromogenic substrate; assay type: biochemical; details: substrate BTEE, one hour at 25°C, pH7
# Protocol: N,N¹-dichlorodimethyl hydantoin was dissolved in ethanol in a known amount and was added to a protease in a 0.1M potassium phosphate buffer containing potassium dihydrogen phosphate and dipotassium hydrogen phosphate at pH7. The mixture was incubated for one hour at 25°C and the enzyme activity was then compared to that of a control by monitoring the protease catalysed hydrolysis of an appropriate chromogenic substrate.
# [6] = target: chymotrypsin (EC 3.4.21.1) (Bos taurus, UniProt P00766); assay: as above; assay type: biochemical; details: pH 7, substrate BTEE, one hour at 25°C, pH7, read-out: % of activity retained (h)
# Protocol: N,N¹-dichlorodimethyl hydantoin was dissolved in ethanol in a known amount and was added to a protease in a 0.1M potassium phosphate buffer containing potassium dihydrogen phosphate and dipotassium hydrogen phosphate at pH7.
# [7] = tested on: amylase (1,4-α-D-glucan-glucanhydrolase; EC 3.2.1.1); assay: amylase activity in the breakdown of starch (3,5-dinitrosalicylate, absorbance at 540nm); assay type: biochemical, Bacillus species; details: amylase incubated for 90 minutes with 9 X 10⁻⁴M compound; absorption at 540nm
# Protocol: A sample of amylase (1,4-α-D-glucan-glucanhydrolase; EC 3.2.1.1) from a Bacillus species (amylase sample obtained from the Sigma Chemical Company) was tested for activity in the breakdown of starch in the presence and absence of N,N¹-dichlorodimethyl hydantoin.
# The activity of the amylase was estimated by a modification of the method described in Methods in Enzymology, published by the Academic Press, Volume 1, on page 149.
# 1g of potato amylopectin (a soluble starch) was dissolved in 200cm³ of a 20mM sodium phosphate aqueous buffer solution adjusted to pH7. 1cm³ of this solution was equilibrated in a water bath maintained at 25 °C. To the foregoing solution were added 2mm³ of an aqueous solution containing amylase in a concentration of 1mg of amylase/cm³ of solution. The mixture was incubated at 25 °C for five minutes. The reaction was then stopped by the addition of 1cm³ of a 0.4M aqueous sodium hydroxide solution containing 10mg/cm³ of 3,5-dinitrosalicylate and 0.3g/cm³ of sodium potassium tartrate. The resultant mixture was placed in a boiling water bath for five minutes, cooled rapidly and diluted with 10cm³ of water (deionised and subsequently doubly distilled in glass apparatus). The absorbance of the resulting mixture at 540nm was determined using a Perkin Elmer LAMBDA 15 spectrophoto meter.
Flow Rate (b) With additive 10 [1] [min],Flow Rate (b) With additive 60 [1] [min],Molecule,other results
23.60,23.00,"O=C1N(Cl)C2C(N1Cl)N(Cl)C(=O)N2Cl (centres unmarked) [TCG, tetrachloroglycoluril]",
,,O=C1CCC(=O)N1Br [N-bromosuccinimide],effect on the activity of the enzyme [2]: potent inhibitor
22.60,21.80,"CC(=O)OI(OC(C)=O)c1ccccc1 [PIDA, phenyl iodonium di-acetate]",
23.10,22.90,"CC1(C)C(=O)N(Cl)C(=O)N1Cl [DCMH, N,N¹-dichlorodimethyl hydantoin]",% of activity retained (d) [3]: 14%; % of activity retained (d) [4]: 45%; % of activity retained (h) ([5]; DCMH 0.9 mM): 88%; % of activity retained (h) ([5]; DCMH 9.0 mM): 9%; activity at 900 µM ([6]; DCMH 0.9 mM): 66%; activity at 9000 µM ([6]; DCMH 9.0 mM): 29%; breakdown of starch to sugar [7]: no breakdown of starch to sugar could be deteced
23.50,22.90,"Cln1cncn1 [CT, 1-chloro-1,2,4-triazole]",
21.20,18.80,"O=S(=O)(c1ccccc1)N(Cl)Cl [DCBS, N,N-dichlorobenzene sulphonamide]",
22.80,22.50,"CC12N(Cl)C(=O)N(Cl)C1(C)N(Cl)C(=O)N2Cl (centres unmarked) [TCMG, tetrachloro-dimethyl glycoluril]",

Molecule,Flow Rate (b) With additive 10 [1] [min],Flow Rate (b) With additive 60 [1] [min],other results
"O=c1[nH]c(=O)n(Cl)c(=O)n1Cl [DCIA, dichloroisocyanuric acid]",22.10,22.30,
sodium tetrachloroaurate [STCA],23.80,23.70,
"O=c1[nH]c(=O)n(Cl)c(=O)n1Cl [DCIS, sodium salt of dichlorosiocyanuric acid]",21.90,19.40,
